Patent publication US20240343720A1, “AAK1 INHIBITOR AND USE THEREOF” (Xizang Haisco Pharmaceutical Co., Ltd., priority 2021, published 2024)

Biological target: AAK1 (Homo sapiens (Human), UniProt Q2M2I8)
Test: In vitro AAK1 enzyme activity assay (ADP-Glo)
Format: biochemical
Conditions: read-out: Inhibitory activity against AAK1 IC50
Description: Compound stock solution (concentration: 10 mM, dissolved in DMSO) was diluted with DMSO to 0.2 mM and then diluted with DMSO in 5-fold gradient to obtain compound solutions with 10 concentrations. Subsequently, the compound solutions with different concentrations were diluted 50-fold in 1×kinase reaction buffer (containing 40 mM Tris, 20 mM MgCl2, 0.1% BSA and 0.5 mM DTT) for later use. AAK1 (Signalchem, Cat #A01-11G-10) was diluted with 1×kinase reaction buffer to 2-fold the final concentration (final concentrations: 30 nM and 28 nM). AAK1 was added to a 384-well white plate at 2 μL/well, and the compounds were then added at 1 μL/well. The plate was sealed with a plate-sealing film, centrifuged at 1000 rpm for 30 seconds and then placed at room temperature for 10 minutes. A mixed solution of ATP (Promega, Cat #V914B) and substrate Micro2 (GenScript, Cat #PE0890) was formulated at 4-fold the final concentration (for AAK1, the corresponding final concentrations of ATP: 15 μM and 5 μM, and the corresponding final concentration of Micro2: 0.1 mg/mL). To the reaction plate was added the mixed solution of ATP and the substrate at 1 μL/well. The plate was sealed with a plate-sealing film and centrifuged at 1000 rpm for 30 seconds. The reaction was carried out at room temperature for 60 minutes (AAK1). ADP-Glo (Promega, Cat #V9102) was transferred to the 384-well plate at 4 μL/well and centrifugation was carried out at 1000 rpm for 1 minute. The mixture was incubated at 25° C. for 40 minutes. A detection solution was transferred to the 384-well plate at 8 μL/well and centrifugation was carried out at 1000 rpm for 1 minute. The resulting mixture was incubated at 25° C. for 40 minutes. The RLU (Relative luminescence unit) signal values were read using a Biotek multilable microplate reader and the percent inhibition was calculated according to the following formula: [1−(LUMcompound−LUMpositive control)/(LUMnegative control−LUMpositive control)]×100. IC50 values were calculated using Graphpad 7.0 software using a four-parameter non-linear fit equation.

Chain of AAK1 (Q2M2I8 27-365): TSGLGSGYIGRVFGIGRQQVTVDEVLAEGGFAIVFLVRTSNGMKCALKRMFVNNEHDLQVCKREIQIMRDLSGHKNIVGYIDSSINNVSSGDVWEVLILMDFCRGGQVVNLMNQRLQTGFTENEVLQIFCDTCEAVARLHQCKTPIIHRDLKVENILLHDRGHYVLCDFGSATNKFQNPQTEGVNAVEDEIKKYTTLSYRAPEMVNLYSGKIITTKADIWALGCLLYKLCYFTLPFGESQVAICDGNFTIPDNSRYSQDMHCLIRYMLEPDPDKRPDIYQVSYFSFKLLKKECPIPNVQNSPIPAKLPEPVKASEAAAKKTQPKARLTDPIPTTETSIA

Compound	IC50 [nM]
CC(N)(COc1ccc(-c2ccnc(C(F)F)c2)nc1C(F)F)CC1(C)CC1 (stereo not drawn) [Compound 2, 1-((2′,6-bis(difluoromethyl)-[2,4′-bipyridin]-5-yl)oxy)-2-methyl-3-(1-methylcyclopropyl) propan-2-amine]	9.29
C=C(C)C[C@](C)(N)COc1ccc(-c2ccnc(NC(C)=O)c2)cc1C#N [Compound 5, (S)-N-(4-(4-((2-amino-2,4-dimethylpent-4-en-1-yl)oxy)-3-cyanophenyl)pyridin-2-yl)acetamide]	6.37
C=C(C)C[C@](C)(N)COc1ccc(-c2ccnc(NC(=O)OC)c2)nc1C [Compound 10, Methyl (S)-(5-((2-amino-2,4-dimethylpent-4-en-1-yl)oxy)-6-methyl-[2,4′-bipyridin]-2′-yl)carbamate]	11.5
C=C(C)C[C@](C)(N)COc1ccc(-c2ccnc(NC(C)=O)c2)nc1C(F)F [Compound 15, (S)-N-(5-((2-amino-2,4-dimethylpent-4-en-1-yl)oxy)-6-(difluoromethyl)-[2,4′-bipyridin]-2′-yl)acetamide]	19.8
C=C(C)C[C@](C)(N)COc1ncc(-c2ccnc(NC(=O)OC)c2)cc1C(F)F [Compound 17, (S)-methyl-(6-((2-amino-2,4-dimethylpent-4-en-1-yl)oxy)-5-(difluoromethyl)-[3,4′-bipyridin]-2′-yl)carbamate]	26.8
COC(=O)Nc1cc(-c2cc(C(F)F)c(OC[C@@](C)(N)CC(C)(C)F)cn2)ccn1 [Compound 20, Methyl (S)-(5-((2-amino-4-fluoro-2,4-dimethylpentyl)oxy)-4-(difluoromethyl)-[2,4′-bipyridin]-2′-yl)carbamate]	16.1
NC1(COc2ccc(-c3ccnc(C(F)F)c3)nc2C(F)F)CCCC1 [Compound 22, 1-(((2′,6-bis(difluoromethyl)-[2,4′-bipyridin]-5-yl)oxy)methyl)cyclopentan-1-amine]	32.1
C=C(C)C[C@](C)(N)COc1ccc(-c2ccnc(NC(C)=O)c2)cc1C(N)=O [Compound 23, (S)-5-(2-acetamidopyridin-4-yl)-2-((2-amino-2,4-dimethylpent-4-en-1-yl)oxy)benzamide]	38.6
C=C(C)C[C@](C)(N)COc1ccc(-c2ccnc(NC(=O)C3CC(F)(F)C3)c2)cc1C#N [Compound 24, (S)-N-(4-(4-((2-amino-2,4-dimethylpent-4-en-1-yl)oxy)-3-cyanophenyl)pyridin-2-yl)-3,3-difluorocyclobutane-1-carboxamide]	22.5
C=C(C)C[C@](C)(N)COc1ccc(-c2ccnc(NC(=O)[C@H]3C[C@H]3F)c2)cc1C#N [Compound 25, (1R,2R)-N-(4-(4-(((S)-2-amino-2,4-dimethylpent-4-en-1-yl)oxy)-3-cyanophenyl)pyridin-2-yl)-2-fluorocyclopropane-1-carboxamide]	11.9
C[C@@](N)(COc1ccc(-c2ccnc(C(F)F)c2)nc1C(F)F)CC1CC1 [Compound 26, (S)-1-((2′,6-bis(difluoromethyl)-[2,4′-bipyridin]-5-yl)oxy)-3-cyclopropyl-2-methylpropan-2-amine]	11
COC(=O)Nc1cc(-c2cc(C(F)(F)F)c(OCC(C)(N)C=C(C)C)cn2)ccn1 (stereo not drawn) [Compound 27, Methyl (5-((2-amino-2,4-dimethylpent-3-en-1-yl)oxy)-4-(trifluoromethyl)-[2,4′-bipyridin]-2′-yl)carbamate]	43.1
CC(=O)Nc1cc(-c2ccc(OC[C@@](C)(N)CC(C)(O)CO)c(C#N)c2)ccn1 (stereo partly drawn) [Compound 28, N-(4-(4-(((2S)-2-amino-4,5-dihydroxy-2,4-dimethylpentyl)oxy)-3-cyanophenyl)pyridin-2-yl)acetamide]	5.96
COC(=O)Nc1cc(-c2ccc(OC[C@@](C)(N)CC3CC3)c(C(F)F)n2)ccn1 [Compound 31, Methyl (S)-(5-(2-amino-3-cyclopropyl-2-methylpropoxy)-6-(difluoromethyl)-[2,4′-bipyridin]-2′-yl)carbamate]	10.9

Next, values leading:

IC50 [nM]	Compound
14.7	CC(C)(F)CC(C)(N)COc1ccc(-c2ccnc(C(F)F)c2)nc1C(F)F (stereo not drawn) [Compound 1, 1-((2′,6-bis(difluoromethyl)-[2,4′-bipyridin]-5-yl)oxy)-4-fluoro-2,4-dimethylpentan-2-amine]
11	CC(=O)Nc1cc(-c2ccc(OC[C@@](C)(N)CC(C)(C)F)c(C#N)c2)ccn1 [Compound 6, (S)-N-(4-(4-((2-amino-4-fluoro-2,4-dimethylpentyl)oxy)-3-cyanophenyl)pyridin-2-yl)acetamide]
13.8	C=C(C)C[C@](C)(N)COc1cnc(-c2ccnc(NC(=O)OC)c2)cc1C(F)(F)F [Compound 7, Methyl-(S)-(5-((2-amino-2,4-dimethylpent-4-en-1-yl)oxy)-4-(trifluoromethyl) [2,4′-bipyridin]-2′-yl)carbamate]
22.3	CC(=O)Nc1cc(-c2ccc(OC[C@@](C)(N)CC(C)(C)F)c(C(F)F)n2)ccn1 [Compound 16, (S)-N-(5-((2-amino-4-fluoro-2,4-dimethylpentyl)oxy)-6-(difluoromethyl)-[2,4′-bipyridin]-2′-yl)acetamide]
9.55	COC(=O)Nc1cc(-c2cnc(OC[C@@](C)(N)CC(C)(C)F)c(C(F)F)c2)ccn1 [Compound 18, (S)-methyl-(6-((2-amino-4-fluoro-2,4-dimethylpentyl)oxy)-5-(difluoromethyl)-[3,4′-bipyridin]-2′-yl)carbamate]
11	C=C(C)C[C@](C)(N)COc1ccc(-c2ccnc(NC(=O)[C@H]3CC3(F)F)c2)cc1C#N [Compound 29, (1R)-N-(4-(4-{[(2S)-2-amino-2,4-dimethylpent-4-en-1-yl]oxy}-3-cyanophenyl)pyridin-2-yl)-2,2-difluorocyclopropane-1-carboxamide]
9.08	C=C(C)C[C@](C)(N)COc1ccc(-c2ccnc(NC(=O)[C@@H]3CC3(F)F)c2)cc1C#N [Compound 30, (1S)-N-(4-(4-{[(2S)-2-amino-2,4-dimethylpent-4-en-1-yl]oxy}-3-cyanophenyl)pyridin-2-yl)-2,2-difluorocyclopropane-1-carboxamide]
